Measurements published in US6605639B1, “Ligands of nuclear receptor” (Nuclear Receptor Research, Ltd., priority 1998, dated 2003).

Columns and labels:
RAR = molecular target: T1, RAR (Homo sapiens, UniProt P10276); assay: RAR reporter gene (luciferase) transfer assay in COS-1 cells; type: cell-based; details: control lot = 1
T1 construct: expressed in transfected cells; host or cells: COS-1 cells
T1 sequence (P10276 1-462): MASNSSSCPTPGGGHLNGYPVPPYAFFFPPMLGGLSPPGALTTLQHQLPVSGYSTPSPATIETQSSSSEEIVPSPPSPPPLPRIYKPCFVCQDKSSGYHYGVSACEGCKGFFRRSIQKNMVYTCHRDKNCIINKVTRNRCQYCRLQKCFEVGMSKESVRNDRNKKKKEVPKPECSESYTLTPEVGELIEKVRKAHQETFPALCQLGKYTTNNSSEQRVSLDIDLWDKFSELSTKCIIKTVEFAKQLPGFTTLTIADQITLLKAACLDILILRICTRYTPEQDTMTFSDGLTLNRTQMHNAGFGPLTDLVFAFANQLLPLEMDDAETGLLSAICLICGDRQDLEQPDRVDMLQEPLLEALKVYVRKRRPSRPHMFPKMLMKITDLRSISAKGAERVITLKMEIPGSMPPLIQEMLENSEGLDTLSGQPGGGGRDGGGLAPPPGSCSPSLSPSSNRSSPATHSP
Description: Each value means the degree of increase in the luciferase activity, which is expressed by referring the luciferase activity in the control lot as to 1, caused by the addition of the corresponding compound.
As a substitute for a plasmid containing a luciferase gene under the regulation in expression by RXR response element (pRXRL:RXRE-SV40 luciferase), and the RXRα expression plasmid (pRXRα); a plasmid containing a luciferase gene under the regulation in expression by RXR response element (pRARL:RASE-SV40 luciferase), and a […] (pRARα) were transferred into COS-1 cells. Transfectants with these plasmids and the compound of the present invention (concentration: 10^−4 to 10^−7 M) were added to the culture.
(§1) After sucking off the medium from the Petri dish, […] of a cultured cell lysing solution (25 mM Tris phosphate buffer (pH 7.8), 2 mM 1,2-diaminocyclohexane-N, N,N′,N′-tetraacetate, 10% glycerol, 1% Triton X-100) was added and the cells were peeled off with a rubber policeman and collected. After completely disrupting the cells by freezing and melting, the cells were centrifuged at 4° C. (15,000 rpm, 2 min) and the supernatant thus obtained was employed as a sample for measurement. To 20 ml of the supernatant, 100 ml of a luciferase substrate solution (2.14 mg of Co-A, 100 ml of 470 mM D-Luciferin, 200 ml of 530 mM ATP, 2 ml of DTT-Tricine buffer (pH 7.8)) was added and the fluorescence intensity was measured with a luminometer (ATTO Luminosensor AB-2000). To measure the β-galactosidase for determining the gene transfer efficiency, using a Luminescent β-galactosidase detection kit II (Clontech), fluorescence intensity was measured by a luminometer.

male ICR and ddY mice = assay: Serum total cholesterol lowering effect in mice; type: in vivo, mouse; details: 8 days; for Serum total cholesterol, % change: vs control; for Serum total cholesterol: Mean±SE
Description: Effect of serum cholesterol lowering agents varies among animals. Namely, some agents which are effective on a certain animal exert […] on others. For example, compactin, which is an HMG CoA reductase inhibitor, cannot lower the serum total cholesterol level when administered to rodents such as rat or mouse. This is because even though HMG CoA reductase is inhibited in the rodent liver, the enzyme is biosynthesized in an amount in excess of that for compensating the inhibition so that the inhibitory effect is negated. Accordingly, it is favorable to calibrate the effect of lowering serum total cholesterol level in as many animals as possible. Concerning the effect of the compounds of the present invention on the serum total cholesterol level, an assay was made with the use of mice. After adding these compounds to a standard powdery feed for rat and mouse, the resultant mixtures were molded into pellets and given for 8 days to male ICR and ddY mice aged 5 weeks. In the afternoon of the day 8, the blood of each animal was collected from the heart and the total cholesterol in the serum was determined. The doses were determined as the maximum dose, in which body weight gain was not suppressed after orally administering for 1 week, and as the ¼ dose thereof.
Each value is represented in Mean±SE (n=10). a) In the case of Compound-1, the control group consisted of 23 animals while the 0.04% and 0.01% groups each consisted of 12 animals.

human RXRα = molecular target: T2, human RXRα (Homo sapiens, UniProt P19793); assay: RXR reporter gene (luciferase) transfer assay in COS-1 cells; type: cell-based; details: 2 × 10^−5 M
T2 construct: expressed in transfected cells; host or cells: COS-1 cells
T2 sequence (P19793 1-462): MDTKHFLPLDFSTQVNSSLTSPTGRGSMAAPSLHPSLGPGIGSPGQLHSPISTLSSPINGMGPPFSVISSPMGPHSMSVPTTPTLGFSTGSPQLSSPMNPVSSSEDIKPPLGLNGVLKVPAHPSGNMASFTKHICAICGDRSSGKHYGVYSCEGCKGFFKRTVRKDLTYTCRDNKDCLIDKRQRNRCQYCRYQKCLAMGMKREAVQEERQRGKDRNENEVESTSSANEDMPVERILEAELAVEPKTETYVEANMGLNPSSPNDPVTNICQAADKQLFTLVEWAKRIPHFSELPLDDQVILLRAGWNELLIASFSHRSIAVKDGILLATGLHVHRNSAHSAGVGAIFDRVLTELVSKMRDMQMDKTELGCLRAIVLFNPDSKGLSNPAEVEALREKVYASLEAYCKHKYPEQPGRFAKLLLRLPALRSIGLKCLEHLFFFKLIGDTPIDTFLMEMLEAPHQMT
Procedure: A plasmid containing a reporter gene regulated in expression by RXR response element and an RXRα expression plasmid were transferred into COS-1 cells. Then these cells were treated with the compounds of the present invention such as ascochlorin.
Plasmids were transferred into COS-1 cells. Gene transfer was carried out in a conventional manner with the use of Lipofect AMINE reagent (Life Technologies). 1×10^5 cells were dispersed in 2 ml of Dulbecco's modified Eagle medium (DMEM) containing 10% of fetal calf serum and poured into a 35 mm Petri dish. After culturing in a CO2 incubator for 17 hours, the medium was removed and the cells adhering to the Petri dish were washed with phosphate-buffered saline (PBS). Then gene transfer was carried out by using Lipofect AMINE reagent. Namely, 500 ml of a minimum serum medium OptiMEM (Life Technologies) containing […] of a plasmid containing a luciferase gene under the regulation in expression by RXR response element (PRXRL: RXRE-SV40 luciferase; a reporter gene plasmid wherein RXRE has been ligated to SV40 promoter and luciferase cDNA, under the regulation in expression thereby, has been located downstream thereof); […] of an RXRα expression plasmid (pRXRα; a plasmid wherein human RXRα CDNA has been ligated to the downstream of a cytomegalovirus promoter to express human RXRα in mammalian cells); and 2 mg of a β-galactosidase gene plasmid to assess the gene transfer ratio (pCH110; Pharmacia) were pre-mixed with 500 ml of OptiMEM containing 50 ml of Lipofec AMINE, and the resultant mixture was maintained at room temperature for 15 minutes. 100 ml of this liquid mixture was mixed with 400 ml of OptiMEM, and the medium mixture was divided to the Petri dish. After maintaining in a CO2 incubator at 37° C. for 3 hours, the gene transfer medium was sucked off from the Petri dish and DMEM medium containing a test substance and 10% of serum (activated carbon-treated) was added thereto followed by culturing at 37° C. for 20 hours. […] Further, dimethyl sulfoxide (final concentration: 0.1%) was added as the solvent for the test substance.
as §1

white rabbits = assay: Inhibition of arteriosclerosis in white rabbits fed high fat feed; details: 0.2% in high fat feed, 14 weeks
Procedure: Thus, a high fat feed was prepared by adding 10% of hardened coconut oil, 2% of cholesterol, 0.5% of bovine bile powder and 0.04% or 0.01% of ascochlorin to a powdery marketed standard white rabbit feed and molded the mixture into pellets. Separately, another high fat feed for the control group was prepared without using ascochlorin.
Twenty-four white rabbits weighing about 2 kg were divided into 4 groups at random. One of these groups was regarded as the control group, while the remaining 3 groups were respectively regarded as the clofibrate group, the ascochlorin 0.01% group and the ascochlorin 0.04% group at random. Then the experiment was carried out for 14 weeks.

male Wistar rats = assay: Sterol balance and bile acid excretion in rats; type: in vivo, rat; details: High cholesterol feed
Procedure: Feed-origin cholesterol and neutral sterol and acidic sterol in the feces of rats, to which the compounds of the present invention had been administered, were determined to monitor sterol balance and changes in the bile acid composition in feces. […] Further, the bile was sampled with the passage of time from rats having been subjected to cholangiostomy and bile acids thereof were determined. […] Male Wistar rats weighting about 250 g were divided into groups each having 6 to 8 animals. […] […] The feces were collected on the days 6 and 10. Then sterols were extracted therefrom in a conventional manner, acidic sterols and neutral sterols were determined. On the other hand, cholesterol in the feed was also determined so as to calculate the amount of feed-origin sterol.

## CC1=C(/C=C/C(C)=C/C=C/C(C)=C/C(=O)O)C(C)(C)CCC1 [All-trans retinoic acid, reference compound]
RAR; 10^−7 M
  degree of increase in the luciferase activity, RAR vector: 46

## COc1c(C=O)c(C)c(Cl)c(O)c1CC=C(C)C=CC1(C)C(C)CCC(=O)C1C (stereo not shown) [Compound-10, 2-O-methylASC]
RAR; 2 × 10^−5 M
  degree of increase in the luciferase activity, RAR vector: 40
Male ICR and ddY mice; 0.01% in feed
  Serum total cholesterol, % change: −30%
  Serum total cholesterol: 130 ± 4.5 mg/dL
Male ICR and ddY mice; 0.04% in feed
  Serum total cholesterol, % change: −34%
  Serum total cholesterol: 122 ± 3.0 mg/dL
Human RXRα
  fold increase in luciferase reporter activity (control = 1): 1.45
Human RXRα; control lot = 1
  degree of increase in the luciferase activity, RXR vector: 58

## CCOC(=O)C(C)(C)Oc1ccc(Cl)cc1 [clofibrate, reference compound]
White rabbits
  animals died from circulatory insufficiency due to obstruction in the coronary artery: 2 animals among six

## COc1c(Cl)c(C)c(C=O)c(OC)c1CC=C(C)C=CC1(C)C(C)CCC(=O)C1C (stereo not shown) [compound 7, 2,4-dimethylASC]
Male ICR and ddY mice; 0.04% in feed
  Serum total cholesterol, % change: −31%
  Serum total cholesterol: 120 ± 5.9 mg/dL

## CC(/C=C/C1(C)C(C)CCC(=O)C1C)=C\Cc1c(O)c(C=O)c(C)c(Cl)c1OCCCC(=O)O (stereo not shown) [compound 16]
Male Wistar rats; administration 5 days
  Sterol balance: +15.12 mg/day
  Sterol in feces, Acidic sterol: 8.67 mg/day
  Sterol in feces, Cholesterol: 246.30 mg/day
  Sterol in feces, Coprosterol: 41.05 mg/day
  excretion increase: 8.95 mg/day
Male Wistar rats; administration 10 days
  Sterol balance: +28.52 mg/day
  Sterol in feces, Acidic sterol: 9.93 mg/day
  Sterol in feces, Cholesterol: 233.08 mg/day
  Sterol in feces, Coprosterol: 58.27 mg/day
  excretion increase: 34.07 mg/day

## CC(/C=C/[C@@]1(C)[C@H](C)CCC(=O)[C@@H]1C)=C\Cc1c(O)c(C=O)c(C)c(Cl)c1OC(=O)c1cccnc1 [compound 19, 4-O-nicotinoylASC]
Male ICR and ddY mice; 0.01% in feed
  Serum total cholesterol, % change: −13%
  Serum total cholesterol: 91 ± 4.5 mg/dL
Male ICR and ddY mice; 0.04% in feed
  Serum total cholesterol, % change: −16%
  Serum total cholesterol: 88 ± 3.0 mg/dL
